Legend:
Assay in all cases: Fura-2 calcium imaging, transfected HEK cells
Assay type in all cases: cell-based
[1] = biological target: T1, TAS2R143 (Mus musculus, UniProt Q7TQB9); conditions: 500 uM ligand; agonist; Galpha16-gustducin chimera co-expressed
T1 construct: N-terminal tag of first 39 residues of bovine rhodopsin; pcDNA3.1(+); HEK 293 cells (ATCC CRL-1573); co-expressed human Galpha16 / mouse gustducin C-terminal 44 chimera
T1 sequence (Q7TQB9 1-293): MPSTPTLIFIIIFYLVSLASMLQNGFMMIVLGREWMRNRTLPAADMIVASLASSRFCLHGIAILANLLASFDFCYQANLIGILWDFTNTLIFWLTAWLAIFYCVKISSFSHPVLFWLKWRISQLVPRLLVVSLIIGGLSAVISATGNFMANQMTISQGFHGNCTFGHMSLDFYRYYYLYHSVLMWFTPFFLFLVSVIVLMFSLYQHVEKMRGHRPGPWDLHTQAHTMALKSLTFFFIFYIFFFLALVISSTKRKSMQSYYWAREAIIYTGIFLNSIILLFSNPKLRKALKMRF

[2] = biological target: T2, TAS2R115 (Mus musculus, UniProt Q7M719); conditions: 100 uM ligand; weak agonist; Galpha16-gustducin chimera co-expressed
T2 construct: N-terminal tag of first 39 residues of bovine rhodopsin; pcDNA3.1(+); HEK 293 cells (ATCC CRL-1573); co-expressed human Galpha16 / mouse gustducin C-terminal 44 chimera
T2 sequence (Q7M719 1-310): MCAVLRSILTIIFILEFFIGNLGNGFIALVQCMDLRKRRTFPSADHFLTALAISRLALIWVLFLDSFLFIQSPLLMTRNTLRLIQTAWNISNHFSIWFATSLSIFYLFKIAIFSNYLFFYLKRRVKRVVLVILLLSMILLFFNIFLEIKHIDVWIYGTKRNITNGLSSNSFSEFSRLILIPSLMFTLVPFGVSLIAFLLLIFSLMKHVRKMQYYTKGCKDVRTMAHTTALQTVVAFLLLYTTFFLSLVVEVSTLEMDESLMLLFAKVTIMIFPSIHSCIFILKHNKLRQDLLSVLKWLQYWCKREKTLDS

[3] = biological target: T3, TAS2R131 (Mus musculus, UniProt Q7M708); conditions: 100 uM ligand; weak agonist; Galpha16-gustducin chimera co-expressed
T3 construct: N-terminal tag of first 39 residues of bovine rhodopsin; pcDNA3.1(+); HEK 293 cells (ATCC CRL-1573); co-expressed human Galpha16 / mouse gustducin C-terminal 44 chimera
T3 sequence (Q7M708 1-310): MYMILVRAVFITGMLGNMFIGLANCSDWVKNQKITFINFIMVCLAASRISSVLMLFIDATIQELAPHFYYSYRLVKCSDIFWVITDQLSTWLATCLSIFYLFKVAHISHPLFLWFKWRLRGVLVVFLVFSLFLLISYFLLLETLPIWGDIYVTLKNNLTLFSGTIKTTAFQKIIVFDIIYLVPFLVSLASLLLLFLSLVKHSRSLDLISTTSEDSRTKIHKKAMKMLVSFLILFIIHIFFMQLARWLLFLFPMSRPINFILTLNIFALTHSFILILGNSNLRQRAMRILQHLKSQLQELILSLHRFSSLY

[4] = biological target: T1, TAS2R143; conditions: 100 uM ligand; agonist; Galpha16-gustducin chimera co-expressed

Compound | % of transfected cells responding at 500 uM [1] | % of transfected cells responding at 100 uM [2] | % of transfected cells responding at 100 uM [3] | % of transfected cells responding at 100 uM [4]
2,4,5-trimethylthiazoline [TMT] | 51% | – | – | –
CCc1cnccn1 [2-EP, 2-ethylpyrazine] | – | ~ 5% | ~ 5% | 14%
CCCC1CCS1 (stereo not drawn) [2-PT, 2-propylthietane] | – | – | – | 47%
CCC(C)C1=NCCS1 (stereo not drawn) [SBT, 2-sec-butylthiazoline] | – | – | – | 13%

From PMC5774136, “Alarm pheromone and kairomone detection via bitter taste receptors in the mouse Grueneberg ganglion” (BMC Biology, 2018)
